Test results as given in patent US20100317671A1, “XANTHINE-BASED CYCLIC GMP-ENHANCING RHO-KINASE INHIBITOR INHIBITS PHYSIOLOGICAL ACTIVITIES OF LUNG EPITHELIAL CELL LINE” (KAOHSIUNG MEDICAL UNIVERSITY, priority 2008, published 2010).

What was measured:
Assay type in all cases: in vivo
eNOS = eNOS expression by western blotting, bleomycin mice; conditions: lung fibrotic stage
Protocol: (§1) At day 28, it is observed that expression of eNOS is decreased, the expressions of TGF-β, Smad 3 and HMGB1 are increased and there is significant collagen accumulation in the tissue sections.
The eNOS (FIG. 15), p-eNOS (FIG. 16) and iNOS (FIG. 17) protein expressions in the lung tissue are analyzed by western blotting. […] The KMUPs administration effectively increases the eNOS expression.
(§2) (1) The mice lung is immersed in the tissue lysis buffer and homogenized by an ultrasound sonicator on ice.
(§3) (2) The lysate is centrifuged at 13,000 g under 4° C. for 30 mins. The supernatant is collected and the protein concentration measurement adopts the“Bio-Rad DC protein assay”. After diluting the protein as specific concentrations, the sample buffer being one fourth of the sample volume is added thereinto for heating at 100° C. for 5 mins, and the sample is loaded into each wells of SDS-PAGE gel in turn. The running buffer is added into the electrophoresis tank for electrophoresis at 100 V, the voltage is adjusted as 200 V when the protein runs to the lower gel, and the electrophoresis is stopped when the SDS-PAGE dye enters the SDS-PAGE.
(3) The PVDF membrane is rinsed ith transfer buffer for use, and the protein on the SDS-PAGE is transferred to the PVDF membrane. […]

collagen = assay: Collagen amount, bleomycin-induced IPF mice; conditions: for Fibrosis formation in lung tissue (collagen): day 28, p<0.01; for The amount of collagen: day 28 after BLM
Protocol: The amount of the collagen in the lung lavage is measured to reflect the fibrosis formation. […] (2) After the lung lavage is obtained, the chest of mice is opened and the lung lobes are cut one by one. […] The 1.5 ml eppendorffs are taken to arrange the calibration curve as follows. […] The eppendorff is then centrifuged at 12,000 rpm for 10 mins. The supernatant in the eppendorff is poured out slowly, 1 ml basic compound is added for dissolving the precipitation. After being violently shaken for 5 mins, the reaction is incubated for 3 hrs to stabilize the color. […] The amount of collagen is estimated through the 540 nm absorption measured by the ELISA reader.

MMP-2 = assay: Gelatin zymography of lung lavage, bleomycin mice; conditions: for MMP-2 expression in lung lavage (zymography): day 7 or day 28, p<0.05; for Expression of MMP2 in lung lavage: lung inflammatory stage
Protocol: (§4) The activities of MMP-2 (FIGS. 7A and 8A) and MMP-9 (FIGS. 7B and 8B) in the lung lavage of mice on day 7 (FIG. 7) and day 28 (FIG. 8) are analyzed by zymography. The expression levels are minor in the normal control group. […] The expressions of MMP-2 and MMP-9 on day 7 are higher than that on day 28. […] It is seen that KMUPs have the effect of mitigating the inflammation.
(§5) The MMPs in the lung lavaga are measured by zymography. It is known that all of the MMP-1, MMP-2, MMP-3, MMP-7 and MMP-9 can degrade the gelatin, especially the MMP-2 and MMP-9. The activity of collagenase can be analyzed by SDS-PAGE gel adding by gelatin. After the collected bronchoalveolar lavage fluid (BALF) is electrophoreted, the SDS is removed with 2.5% (v/v) Triton X-100 and the activity of collagenase is recovered to degrade the gelatin. After reacting for a period of time, the commassie blue is utilized for staining and destaining so that a transparent band in the area having the collagenase activity can be seen owing to the gelatin is degraded.
(§6) The BALF is collected and the concentration thereof is measured by Bio-Rad DC protein assay. The absorption of BALF at 595 nm wavelength is measured by an ELISA reader with a BSA standard, and the concentration of the sample is measured according to the standard curve of this absorption value.
(§7) The sample is mixed with non sample buffer. After reacting under temperature for 10 mins, the separating gel containing 0.1% gelatin is utilized for electrophoresis analysis under low temperature. While the electrophoresis is finished, the gel is immersed in 2.5% Triton X-100 buffer to react under temperature for half hour. The 2.5% Triton X-100 buffer is exchanged to react under temperature for additional half hour. The gel is immersed in the developing buffer at 37° C. for 24 hrs, stained with staining buffer for 1 hr and destained with the destaining buffer, and the transparent band can be seen.

MMP-9 = assay: Gelatin zymography of lung lavage, bleomycin mice; conditions: for MMP-9 expression in lung lavage (zymography): day 7 or day 28, p<0.05; for Expression of MMP-9 in lung lavage: lung inflammatory stage
Protocol: as §4, §5, §6, §7

HMGB1 = HMGB1 expression, bleomycin mice; conditions: lung inflammatory stage
Protocol: as §1, §2, §3
(3) The PVDF membrane is rinsed ith transfer buffer for use, and the protein on the SDS-PAGE is transferred to the PVDF membrane. The SDS-PAGE layer covering on the PVDF membrane is placed in a protein transfer tank immersed with the transfer buffer with the current set at 100V. After 80 mins, the transfer is completed and then the PVDF membrane is taken out. […]

[1] = Body weight change, bleomycin-induced IPF mice
Protocol: The six-week old mice are used in this experiment and divided into ten groups as follows. […] The six-week old male C57B1/6 mice are purchased from the National Laboratory Animal Center. […] After being […] pentobarbital in the dose of 0.52 mg/10 g, the mice is kept upright and positioned an otoscope into the larynx for looking into the trachea clearly. The bleomycin is loaded by a loading tip for intratracheal administration.

[2] = dose 2.5 mg/kg (Combination: 2.5 mg/kg each drug)
[3] = Day 7, dose 2.5 mg/kg (Combination: 2.5 mg/kg each drug)
[4] = Day 14, dose 2.5 mg/kg (Combination: 2.5 mg/kg each drug)
[5] = Day 28, dose 2.5 mg/kg (Combination: 2.5 mg/kg each drug)
[6] = Day −3, dose 2.5 mg/kg (Combination: 2.5 mg/kg each drug)

Compound | Expression of eNOS (eNOS) | Fibrosis formation in lung tissue (collagen) (collagen) | The amount of collagen (collagen; [2]) [μg/lung] | MMP-2 expression in lung lavage (zymography) (MMP-2) | Expression of MMP2 in lung lavage (MMP-2) | MMP-9 expression in lung lavage (zymography) (MMP-9) | Expression of MMP-9 in lung lavage (MMP-9) | Expression of HMGB1 (HMGB1) | Body weight [1, 3] [g] | Body weight [1, 4] [g] | Body weight [1, 5] [g] | Body weight [1, 6] [g] | also measured
CCC(C)(C)C(=O)O[C@H]1C[C@@H](C)C=C2C=C[C@H](C)[C@H](CC[C@@H](O)C[C@@H](O)CC(=O)O)[C@H]21.Cn1c(=O)c2c(ncn2CCN2CCN(c3ccccc3Cl)CC2)n(C)c1=O [KMUP-5] | increase | reduce | 79.40 ± 0.02 | significantly decrease | efficiently decrease | significantly decrease | efficiently decrease | efficiently decrease | 22.25 ± 2.36 | 23.15 ± 2.51 | 23.03 ± 2.74 | 23.87 ± 2.04 | Marasmus (body weight loss) ([1]; bleomycin mice): less significant
Cn1c(=O)c2c(ncn2CCN2CCN(c3ccccc3Cl)CC2)n(C)c1=O [KMUP-1, 7-[2-[4-(2-chlorobenzene)piperazinyl]ethyl]-1,3-dimethylxanthine] | increase | reduce | 132.25 ± 5.95 | significantly decrease | efficiently decrease | significantly decrease | efficiently decrease | efficiently decrease | 17.84 ± 1.72 | 19.11 ± 3.4 | 20.43 ± 2.8 | 23.06 ± 1.36 | The amount of collagen (collagen; dose 1 mg/kg): 165.16 ± 0.11 μg/lung; The amount of collagen (collagen; dose 5 mg/kg): 108.32 ± 6.05 μg/lung; Body weight ([1]; Day 7, dose 1 mg/kg): 19.80 ± 3.13 g; Body weight ([1]; Day 7, dose 5 mg/kg): 18.33 ± 1.3 g; Body weight ([1]; Day 14, dose 1 mg/kg): 20.48 ± 5.68 g; Body weight ([1]; Day 14, dose 5 mg/kg): 19.83 ± 2.3 g; Body weight ([1]; Day 28, dose 1 mg/kg): 21.90 ± 5.27 g; Body weight ([1]; Day 28, dose 5 mg/kg): 21.13 ± 2.5 g; Body weight ([1]; Day −3, dose 1 mg/kg): 24.12 ± 1.96 g; Body weight ([1]; Day −3, dose 5 mg/kg): 23.13 ± 1.42 g
